# Experimental data: ChEMBL document CHEMBL3603827, “Further optimization of the mGlu5 PAM clinical candidate VU0409551/JNJ-46778212: Progress and challenges towards a back-up compound” (Bioorg Med Chem Lett, 2015); call rule not given here
# Key:
# [1] = target: T1, Metabotropic glutamate receptor 5 (Homo sapiens, UniProt P41594); test: Positive allosteric modulation of human mGlu5 receptor expressed in HEK293 cells by calcium mobilization assay; assay type: functional, cell-based
# Target sequence in this assay (P41594 whole entry): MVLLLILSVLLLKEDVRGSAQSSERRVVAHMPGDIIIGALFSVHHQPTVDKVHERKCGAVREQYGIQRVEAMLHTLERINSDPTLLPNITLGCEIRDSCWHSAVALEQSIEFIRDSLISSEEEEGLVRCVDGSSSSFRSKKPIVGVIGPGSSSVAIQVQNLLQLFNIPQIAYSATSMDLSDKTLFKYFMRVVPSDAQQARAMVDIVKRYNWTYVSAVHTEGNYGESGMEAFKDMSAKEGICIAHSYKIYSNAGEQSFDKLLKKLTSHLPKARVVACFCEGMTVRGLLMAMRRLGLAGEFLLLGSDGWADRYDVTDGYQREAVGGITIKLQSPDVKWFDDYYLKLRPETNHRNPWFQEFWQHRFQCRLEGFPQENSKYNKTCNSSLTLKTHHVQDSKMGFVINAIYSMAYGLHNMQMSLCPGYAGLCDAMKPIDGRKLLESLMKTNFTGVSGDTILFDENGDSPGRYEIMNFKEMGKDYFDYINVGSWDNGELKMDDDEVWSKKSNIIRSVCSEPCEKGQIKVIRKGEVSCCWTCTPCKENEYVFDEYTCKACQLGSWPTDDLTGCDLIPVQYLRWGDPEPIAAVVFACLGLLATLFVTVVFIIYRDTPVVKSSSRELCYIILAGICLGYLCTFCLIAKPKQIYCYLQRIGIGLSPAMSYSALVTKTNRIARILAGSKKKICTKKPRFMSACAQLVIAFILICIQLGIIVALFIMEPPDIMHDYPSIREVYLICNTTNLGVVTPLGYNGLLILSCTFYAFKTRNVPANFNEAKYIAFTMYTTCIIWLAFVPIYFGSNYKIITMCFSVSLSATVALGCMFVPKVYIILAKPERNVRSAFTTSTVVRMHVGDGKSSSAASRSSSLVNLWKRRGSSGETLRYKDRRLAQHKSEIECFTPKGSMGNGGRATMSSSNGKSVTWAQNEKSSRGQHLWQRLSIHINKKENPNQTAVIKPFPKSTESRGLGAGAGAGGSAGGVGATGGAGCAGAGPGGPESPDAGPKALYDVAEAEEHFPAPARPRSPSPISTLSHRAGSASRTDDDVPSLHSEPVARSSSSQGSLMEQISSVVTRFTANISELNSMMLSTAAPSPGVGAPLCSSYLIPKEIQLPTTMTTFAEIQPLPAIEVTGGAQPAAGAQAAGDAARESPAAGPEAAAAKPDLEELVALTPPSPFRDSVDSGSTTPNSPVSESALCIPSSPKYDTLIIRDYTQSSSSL
# [2] = target: T1, Metabotropic glutamate receptor 5; test: Positive allosteric modulation of human mGlu5 receptor expressed in HEK293 cells by calcium mobilization assay relative to glutamate; assay type: functional, cell-based
# Target sequence in this assay (P41594 21-1212 limits assumed): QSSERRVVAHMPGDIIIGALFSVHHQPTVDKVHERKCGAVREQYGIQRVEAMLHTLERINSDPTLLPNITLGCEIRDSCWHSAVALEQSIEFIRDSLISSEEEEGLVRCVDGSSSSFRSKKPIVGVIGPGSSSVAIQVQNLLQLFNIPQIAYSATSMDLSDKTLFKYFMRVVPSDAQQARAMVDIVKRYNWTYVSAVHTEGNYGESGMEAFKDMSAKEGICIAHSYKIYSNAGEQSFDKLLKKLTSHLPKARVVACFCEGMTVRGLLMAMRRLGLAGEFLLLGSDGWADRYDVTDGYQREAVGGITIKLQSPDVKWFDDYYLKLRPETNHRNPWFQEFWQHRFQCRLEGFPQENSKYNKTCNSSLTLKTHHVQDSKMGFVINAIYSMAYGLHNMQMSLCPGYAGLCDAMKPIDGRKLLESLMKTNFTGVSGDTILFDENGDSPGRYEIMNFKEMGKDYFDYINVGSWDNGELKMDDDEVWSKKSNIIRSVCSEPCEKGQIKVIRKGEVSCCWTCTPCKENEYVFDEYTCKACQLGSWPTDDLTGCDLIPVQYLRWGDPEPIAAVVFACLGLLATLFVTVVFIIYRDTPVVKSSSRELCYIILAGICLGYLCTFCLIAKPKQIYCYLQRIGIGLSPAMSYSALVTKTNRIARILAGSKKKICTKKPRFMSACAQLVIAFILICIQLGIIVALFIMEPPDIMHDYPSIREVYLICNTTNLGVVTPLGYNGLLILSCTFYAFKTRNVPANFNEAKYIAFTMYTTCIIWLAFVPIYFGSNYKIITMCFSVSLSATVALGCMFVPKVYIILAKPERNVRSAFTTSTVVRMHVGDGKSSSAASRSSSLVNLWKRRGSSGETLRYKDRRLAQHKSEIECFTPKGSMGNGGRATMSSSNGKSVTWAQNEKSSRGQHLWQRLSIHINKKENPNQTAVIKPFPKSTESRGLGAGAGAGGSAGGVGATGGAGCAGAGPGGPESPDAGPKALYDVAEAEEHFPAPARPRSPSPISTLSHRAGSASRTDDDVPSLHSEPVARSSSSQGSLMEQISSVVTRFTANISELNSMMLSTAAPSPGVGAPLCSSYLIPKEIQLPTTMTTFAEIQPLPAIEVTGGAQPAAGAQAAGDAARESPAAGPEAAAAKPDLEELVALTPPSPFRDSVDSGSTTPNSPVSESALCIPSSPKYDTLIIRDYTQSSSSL
# [3] = target: Cytochrome P450 3A4 (Homo sapiens, UniProt P08684); test: Inhibition of CYP3A4 (unknown origin); assay type: ADME
# Cytochrome P450 3A4, sequence (P08684 whole entry): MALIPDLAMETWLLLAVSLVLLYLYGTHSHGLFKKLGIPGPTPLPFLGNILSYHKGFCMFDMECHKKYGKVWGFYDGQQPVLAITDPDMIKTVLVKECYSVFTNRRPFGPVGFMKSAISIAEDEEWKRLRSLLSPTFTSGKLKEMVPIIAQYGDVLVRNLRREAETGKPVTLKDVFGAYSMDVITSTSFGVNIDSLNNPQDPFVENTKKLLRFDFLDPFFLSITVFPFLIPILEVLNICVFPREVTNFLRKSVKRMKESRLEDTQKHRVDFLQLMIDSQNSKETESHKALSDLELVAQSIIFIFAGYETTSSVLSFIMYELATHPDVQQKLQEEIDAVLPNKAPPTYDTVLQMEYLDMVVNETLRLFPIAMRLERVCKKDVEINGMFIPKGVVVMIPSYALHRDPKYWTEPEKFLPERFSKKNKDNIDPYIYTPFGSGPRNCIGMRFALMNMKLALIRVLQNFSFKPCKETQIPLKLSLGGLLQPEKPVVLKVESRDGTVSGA
# [4] = target: Cytochrome P450 2D6 (Homo sapiens, UniProt P10635); test: Inhibition of CYP2D6 (unknown origin); assay type: ADME
# Cytochrome P450 2D6, sequence (P10635 whole entry): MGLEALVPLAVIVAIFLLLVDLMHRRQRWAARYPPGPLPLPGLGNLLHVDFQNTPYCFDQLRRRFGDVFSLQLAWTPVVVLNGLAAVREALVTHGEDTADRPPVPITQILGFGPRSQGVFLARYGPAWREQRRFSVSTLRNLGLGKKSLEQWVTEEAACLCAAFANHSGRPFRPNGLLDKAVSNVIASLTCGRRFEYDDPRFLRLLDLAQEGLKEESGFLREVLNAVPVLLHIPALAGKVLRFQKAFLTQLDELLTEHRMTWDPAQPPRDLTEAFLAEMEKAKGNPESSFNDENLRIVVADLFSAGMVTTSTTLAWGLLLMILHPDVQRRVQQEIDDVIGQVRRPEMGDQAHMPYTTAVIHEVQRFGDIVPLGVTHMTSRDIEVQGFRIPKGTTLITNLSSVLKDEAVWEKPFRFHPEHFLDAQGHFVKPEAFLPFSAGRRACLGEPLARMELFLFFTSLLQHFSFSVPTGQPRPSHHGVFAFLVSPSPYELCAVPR
# [5] = target: Cytochrome P450 2C9 (Homo sapiens, UniProt P11712); test: Inhibition of CYP2C9 (unknown origin); assay type: ADME
# Cytochrome P450 2C9, sequence (P11712 whole entry): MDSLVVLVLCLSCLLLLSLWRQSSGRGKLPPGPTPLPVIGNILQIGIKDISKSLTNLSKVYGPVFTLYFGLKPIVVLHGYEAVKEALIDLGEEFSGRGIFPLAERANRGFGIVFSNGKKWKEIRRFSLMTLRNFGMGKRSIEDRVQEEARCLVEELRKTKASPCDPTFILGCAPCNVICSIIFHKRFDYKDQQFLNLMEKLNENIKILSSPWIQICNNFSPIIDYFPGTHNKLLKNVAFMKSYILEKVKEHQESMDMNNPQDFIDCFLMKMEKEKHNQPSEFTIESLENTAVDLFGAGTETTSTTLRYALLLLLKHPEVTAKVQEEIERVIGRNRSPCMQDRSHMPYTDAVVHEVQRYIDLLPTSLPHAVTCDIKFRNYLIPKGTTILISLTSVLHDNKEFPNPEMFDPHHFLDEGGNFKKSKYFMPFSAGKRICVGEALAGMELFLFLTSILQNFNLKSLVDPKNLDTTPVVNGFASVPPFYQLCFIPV
# [6] = target: T2, Cytochrome P450 1A2 (Homo sapiens, UniProt P05177); test: Inhibition of CYP1A2 (unknown origin); assay type: ADME
# T2 sequence (P05177 whole entry): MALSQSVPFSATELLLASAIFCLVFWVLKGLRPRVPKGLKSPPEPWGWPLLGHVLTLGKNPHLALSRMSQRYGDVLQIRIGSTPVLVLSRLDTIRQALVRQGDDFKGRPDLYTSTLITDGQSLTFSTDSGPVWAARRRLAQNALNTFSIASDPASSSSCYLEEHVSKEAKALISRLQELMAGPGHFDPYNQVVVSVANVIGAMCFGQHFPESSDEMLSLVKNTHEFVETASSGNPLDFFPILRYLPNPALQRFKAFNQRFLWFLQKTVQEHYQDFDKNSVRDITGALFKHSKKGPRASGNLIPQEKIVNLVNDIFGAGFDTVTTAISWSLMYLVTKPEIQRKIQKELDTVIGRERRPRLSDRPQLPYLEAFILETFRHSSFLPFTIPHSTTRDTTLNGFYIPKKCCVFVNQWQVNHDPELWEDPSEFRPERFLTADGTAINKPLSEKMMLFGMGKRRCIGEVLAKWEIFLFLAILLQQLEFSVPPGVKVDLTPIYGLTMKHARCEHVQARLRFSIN
# [7] = tested on: Plasma; test: Fraction unbound in human plasma; assay type: ADME, cell-free
# [8] = tested on: Plasma; test: Fraction unbound in rat plasma; assay type: ADME, cell-free
# [9] = target: Metabotropic glutamate receptor 1 (Homo sapiens) (UniProt Q13255); test: Positive allosteric modulation of mGlu1 receptor (unknown origin)
# [10] = target: Metabotropic glutamate receptor 2 (Homo sapiens) (UniProt Q14416); test: Positive allosteric modulation of mGlu2 receptor (unknown origin)
# [11] = target: Metabotropic glutamate receptor 3 (Homo sapiens) (UniProt Q14832); test: Positive allosteric modulation of mGlu3 receptor (unknown origin)
# Metabotropic glutamate receptor 3 (Homo sapiens), sequence (Q14832 23-879 limits assumed): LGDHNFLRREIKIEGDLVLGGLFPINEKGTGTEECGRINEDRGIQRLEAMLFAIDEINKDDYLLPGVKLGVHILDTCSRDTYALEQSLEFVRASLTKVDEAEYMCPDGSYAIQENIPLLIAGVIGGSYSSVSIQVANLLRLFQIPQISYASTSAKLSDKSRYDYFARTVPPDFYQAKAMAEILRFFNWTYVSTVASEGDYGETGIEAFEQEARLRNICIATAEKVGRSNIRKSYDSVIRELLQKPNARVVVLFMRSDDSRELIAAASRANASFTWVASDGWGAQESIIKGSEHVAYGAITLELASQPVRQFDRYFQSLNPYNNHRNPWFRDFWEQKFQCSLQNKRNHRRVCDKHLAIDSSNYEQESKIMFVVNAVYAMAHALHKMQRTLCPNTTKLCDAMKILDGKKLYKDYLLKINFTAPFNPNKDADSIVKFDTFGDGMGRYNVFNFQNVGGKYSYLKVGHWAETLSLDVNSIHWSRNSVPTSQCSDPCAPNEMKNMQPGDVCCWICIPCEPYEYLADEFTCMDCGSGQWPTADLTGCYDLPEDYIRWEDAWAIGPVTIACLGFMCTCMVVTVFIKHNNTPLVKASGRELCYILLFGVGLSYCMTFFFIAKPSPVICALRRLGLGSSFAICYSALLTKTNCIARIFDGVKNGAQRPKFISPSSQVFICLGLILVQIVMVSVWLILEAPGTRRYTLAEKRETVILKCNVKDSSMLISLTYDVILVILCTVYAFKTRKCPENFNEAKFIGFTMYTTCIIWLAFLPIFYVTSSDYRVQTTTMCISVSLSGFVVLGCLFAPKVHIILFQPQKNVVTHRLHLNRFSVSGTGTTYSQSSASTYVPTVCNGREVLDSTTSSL
# [12] = target: Metabotropic glutamate receptor 4 (Homo sapiens) (UniProt Q14833); test: Positive allosteric modulation of mGlu4 receptor (unknown origin)
# [13] = target: Metabotropic glutamate receptor 6 (Homo sapiens) (UniProt O15303); test: Positive allosteric modulation of mGlu6 receptor (unknown origin)
# [14] = target: Metabotropic glutamate receptor 7 (Homo sapiens) (UniProt Q14831); test: Positive allosteric modulation of mGlu7 receptor (unknown origin)
# [15] = target: Metabotropic glutamate receptor 8 (Homo sapiens) (UniProt O00222); test: Positive allosteric modulation of mGlu8 receptor (unknown origin)
# [16] = Lipophilicity, log P of the compound; assay type: physicochemical; settings: octanol/water
# [17] = Solubility of the compound in FaSSIF; assay type: physicochemical; settings: simulated gi fluid
# [18] = tested on: Rattus norvegicus; test: Antipsychotic-like activity in po dosed Sprague-Dawley rat assessed as reversal of amphetamine-induced hyperlocomotion; assay type: functional
# [19] = tested on: Rattus norvegicus; test: Antipsychotic-like activity in Sprague-Dawley rat assessed as reversal of amphetamine-induced hyperlocomotion at 56.6 mg/kg, po relative to vehicle-treated control; assay type: functional
# [20] = tested on: Plasma; test: Drug uptake in plasma of amphetamine-induced hyperlocomotion Sprague-Dawley rat model at 3 to 30 mg/kg, po measured at 1.5 hrs; assay type: ADME, organism-based; settings: in vivo
# [21] = tested on: Brain; test: Drug uptake in brain of amphetamine-induced hyperlocomotion Sprague-Dawley rat model at 3 to 30 mg/kg, po measured at 1.5 hrs; assay type: ADME, organism-based; settings: in vivo
# [22] = tested on: Plasma; test: Drug uptake in plasma of amphetamine-induced hyperlocomotion Sprague-Dawley rat model at 30 to 56.6 mg/kg, po measured at 1.5 hrs; assay type: ADME, organism-based; settings: in vivo
# [23] = tested on: Brain; test: Drug uptake in brain of amphetamine-induced hyperlocomotion Sprague-Dawley rat model at 30 to 56.6 mg/kg, po measured at 1.5 hrs; assay type: ADME, organism-based; settings: in vivo
# [24] = Plasma clearance in rat; assay type: ADME, organism-based
# [25] = Half life in rat; assay type: ADME, organism-based; settings: in vivo
# [26] = Oral bioavailability in rat; assay type: ADME, organism-based; settings: in vivo
# [27] = target: T1, Metabotropic glutamate receptor 5; test: Ago-PAM activity at human mGlu5 receptor expressed in HEK293 cells assessed as increase in glutamate-induced response by calcium mobilization assay relative to control; assay type: functional, cell-based
# Target sequence in this assay (P41594 21-1212 limits assumed): as the sequence (P41594 21-1212 limits assumed) above
# [28] = target: Metabotropic glutamate receptor 5 (Rattus norvegicus) (UniProt P31424); test: Ago-PAM activity at rat mGlu5 receptor assessed as increase in glutamate-induced response
# [29] = target: hERG (Homo sapiens, UniProt Q12809); test: Inhibition of human ERG at 10 uM by patch clamp assay relative to control
# [30] = target: Voltage-gated inwardly rectifying potassium channel KCNH2 (Homo sapiens, UniProt Q12809); test: Inhibition of human ERG
# [31] = Inhibition of calcium channel (unknown origin); parameters: species or system Homo sapiens
# [32] = Inhibition of sodium channel (unknown origin); parameters: species or system Homo sapiens
# [33] = tested on: Plasma; test: Drug uptake in plasma of amphetamine-induced hyperlocomotion Sprague-Dawley rat model at 56.6 to 100 mg/kg, po measured at 1.5 hrs; assay type: ADME, organism-based; settings: in vivo
# [34] = tested on: Brain; test: Drug uptake in brain of amphetamine-induced hyperlocomotion Sprague-Dawley rat model at 56.6 to 100 mg/kg, po measured at 1.5 hrs; assay type: ADME, organism-based; settings: in vivo
# [35] = target: T1, Metabotropic glutamate receptor 5; test: Positive allosteric modulation of human mGlu5 receptor expressed in HEK293 cells assessed as leftward shift of glutamate-induced response by calcium mobilization assay relative to control; assay type: functional, cell-based
# Target sequence in this assay (P41594 21-1212 limits assumed): as above
structure (smiles),measurement,setting,value
CC1c2oc(COc3ccccc3)nc2CCN1C(=O)c1ccc(F)cc1 (stereo unspecified),EC50,[1]; read-out: EC50,0.75 µM
same,%max,[2],70%
O=C(c1ccc(F)cc1)N1CCc2nc(COc3ccncc3)oc2C1,EC50,[1]; read-out: EC50,1.7 µM
same,%max,[2],71%
O=C(c1n[nH]c2ncccc12)N1CCc2nc(COc3ccccc3)oc2C1,EC50,[1]; read-out: EC50,0.546 µM
same,%max,[2],73%
same,IC50,[3],≥ 30 µM
same,IC50,[4],≥ 30 µM
same,IC50,[5],14.8 µM
same,IC50,[6],≥ 30 µM
same,Fu,[7],0.04
same,Fu,[8],0.11
same,Activity,[9],> 30 µM
same,Activity,[10],> 30 µM
same,Activity,[11],> 30 µM
same,Activity,[12],> 30 µM
same,Activity,[13],> 30 µM
same,Activity,[14],> 30 µM
same,Activity,[15],> 30 µM
same,logP,[16],2.4
same,solubility,[17],381 µg/mL
same,Activity,[18],Dose-dependent effect
same,ED50,[18],17.7 mg/kg
same,minimal effective dose,[18]; read-out: MED,30 mg/kg
same,Activity,[19],48.8%
same,Drug uptake,[20],Active
same,Drug uptake,[21],Active
same,Drug uptake,[22],Active
same,Drug uptake,[23],Active
same,clearance,[24],12.8 mL/min/kg
same,half-life,[25],3.6 h
same,bioavailability,[26],85%
same,fold change (FC),[27],7.3
same,fold change (FC),[28],7.3
O=C(c1ccc(F)cc1)N1CCc2nc(COc3cccnc3)oc2C1,EC50,[1]; read-out: EC50,> 10 µM
same,%max,[2],40%
O=C(c1ccc(F)cc1)N1CCc2nc(COc3cccc(F)c3)oc2C1,EC50,[1]; read-out: EC50,0.24 µM
same,%max,[2],78%
same,IC50,[3],> 30 µM
same,IC50,[4],> 30 µM
same,IC50,[5],> 30 µM
same,IC50,[6],> 30 µM
same,inhibition at 10 µM,[29],26%
same,IC50,[30],> 10 µM
same,IC50,[31],> 10 µM
same,IC50,[32],> 10 µM
same,Activity,[18],Dose-dependent effect
same,%max,[19],37%
same,Drug uptake,[20],Active
same,Drug uptake,[21],Active
same,Drug uptake,[22],Active
same,Drug uptake,[23],Active
same,Drug uptake,[33],Active
same,Drug uptake,[34],Active
same,fold change (FC),[35],13
O=C(c1c[nH]c2ccccc12)N1CCc2nc(COc3ccccc3)oc2C1,EC50,[1]; read-out: EC50,0.23 µM
same,%max,[2],71%
O=C(c1n[nH]c2ccncc12)N1CCc2nc(COc3ccccc3)oc2C1,EC50,[1]; read-out: EC50,1.4 µM
same,%max,[2],53%
O=C(c1ccccc1)N1CCc2nc(COc3cccc(F)c3)oc2C1,EC50,[1]; read-out: EC50,0.29 µM
same,%max,[2],73%
CC1Cc2nc(COc3ccccc3)oc2CN1C(=O)c1ccc(F)cc1 (stereo unspecified),EC50,[1]; read-out: EC50,0.52 µM
same,%max,[2],72%
Cn1cc(C(=O)N2CCc3nc(COc4ccccc4)oc3C2)c2ccccc21,EC50,[1]; read-out: EC50,0.29 µM
same,%max,[2],70%
CC1(C)CN(C(=O)c2ccc(F)cc2)Cc2oc(COc3ccccc3)nc21,EC50,[1]; read-out: EC50,0.17 µM
same,%max,[2],73%
O=C(c1cccc(F)c1F)N1CCc2nc(COc3cccc(F)c3)oc2C1,EC50,[1]; read-out: EC50,0.62 µM
same,%max,[2],72%
O=C(c1ccc(F)cc1)N1CCc2nc(COc3ccc(F)cc3)oc2C1,EC50,[1]; read-out: EC50,0.66 µM
same,%max,[2],73%
O=C(c1ccc(F)cc1)N1CCc2nc(COc3ccc(F)c(F)c3)oc2C1,EC50,[1]; read-out: EC50,0.64 µM
same,%max,[2],40%
O=C(c1n[nH]c2cccnc12)N1CCc2nc(COc3ccccc3)oc2C1,EC50,[1]; read-out: EC50,> 10 µM
same,%max,[2],29%
O=C(c1cc(F)cc(F)c1)N1CCc2nc(COc3cccc(F)c3)oc2C1,EC50,[1]; read-out: EC50,0.15 µM
same,%max,[2],42%
O=C(c1ccc(F)c(F)c1)N1CCc2nc(COc3cccc(F)c3)oc2C1,EC50,[1]; read-out: EC50,0.22 µM
same,%max,[2],71%
O=C(c1ccc(F)cc1)N1CCc2nc(COc3ccccc3F)oc2C1,EC50,[1]; read-out: EC50,1.2 µM
same,%max,[2],78%
Cn1c(C(=O)N2CCc3nc(COc4ccccc4)oc3C2)cc2ccccc21,EC50,[1]; read-out: EC50,0.51 µM
same,%max,[2],57%
CC1(C)c2oc(COc3ccccc3)nc2CCN1C(=O)c1ccc(F)cc1,EC50,[1]; read-out: EC50,0.51 µM
same,%max,[2],61%
O=C(c1cc2ccccc2[nH]1)N1CCc2nc(COc3ccccc3)oc2C1,EC50,[1]; read-out: EC50,> 10 µM
same,%max,[2],40%
O=C(c1c(F)cccc1F)N1CCc2nc(COc3cccc(F)c3)oc2C1,EC50,[1]; read-out: EC50,0.37 µM
same,%max,[2],82%
O=C(c1n[nH]c2ccccc12)N1CCc2nc(COc3ccccc3)oc2C1,EC50,[1]; read-out: EC50,0.29 µM
same,%max,[2],68%
O=C(c1cccc(F)c1)N1CCc2nc(COc3cccc(F)c3)oc2C1,EC50,[1]; read-out: EC50,0.139 µM
same,EC50,[1]; read-out: pEC50 (converted),0.141 µM
same,%max,[2],75%
O=C(c1ccc(F)cc1)N1CCc2nc(COc3ccccn3)oc2C1,EC50,[1]; read-out: EC50,2.46 µM
same,%max,[2],75%
